Test results as given in paper PMC4645160, “Targeting kinases with anilinopyrimidines: discovery of N-phenyl-N’-[4-(pyrimidin-4-ylamino)phenyl]urea derivatives as selective inhibitors of class III receptor tyrosine kinase subfamily” (Scientific Reports, 2015).
Several values for one entry are separate records, joined by “and”; a condition that tells them apart may be missing. Identical values can stand only once.

Assays:
[1] = tested on: Lewis Lung Carcinoma (LLC); experiment: In vivo anticancer activity toward Lewis Lung Carcinoma (LLC); settings: LLC in C57BL mice, 27 at 7.5 mg/kg, CDDP at 1.5 mg/kg
Source text: (§1) Besides, it was as cytotoxic as 19 towards cancer cells while showing a more favorable selectivity index. On these basis, compound 27 was chosen for in vivo experiments against a syngeneic murine solid tumor model, the murine Lewis Lung Carcinoma (LLC). The tumor growth inhibition induced by 27 was compared with that promoted by cisplatin (CDDP), the most common chemotherapeutic drug used in the treatment of lung cancers. Nine days after tumor inoculation, tumor-bearing mice were randomized into vehicle control and treatment groups (8 mice per group). Control mice received the vehicle (0.2%v/v EtOH and 99.8%v/v of a saline solution), whereas treated groups received daily doses of 27 (7.5 mg · kg^−1 in the vehicle solution composed of 0.2%v/v EtOH and 99.8%v/v of saline solution) or CDDP (1.5 mg · kg^−1 in saline solution). Tumor growth was estimated at day 20 (Fig. 7a). As an indication of the adverse side effects, changes in the body weights of tumor-bearing mice were monitored at day 1 and daily from day 9.
Figure 7 In vivo testing of compound 27. Lewis lung carcinoma (LLC) was implanted i.m. (2 · 10^6 cells inoculum) into the right hind leg of 8-week old imbred C57BL mice. Nine days after tumor inoculation (palpable tumor), tumor-bearing mice were randomized into vehicle control and treatment groups (8 mice per group). Compound 27 was dosed daily at 7.5 mg/kg ip and CDDP was dosed daily at 1.5 mg/kg ip. At day 20, animals were sacrificed (i.e., before tumor can cause the animal discomfort), the legs were amputated at the proximal end of the femur, and the inhibition of tumor growth was determined according to the difference in weight of the tumor-bearing leg and the healthy leg of the animals expressed as % referred to the control animals. Control was constituted by vehicle (0.2%v/v EtOH and 99.8%v/v of saline solution). CDDP was used as positive reference. Both 27 and CDDP were administered at the highest not toxic doses (7.5 and 1.5 mg/kg, respectively), as determined by MTD studies. (a) Average tumor weight (g) after 20 days of treatment with control or compounds. (b) Percentage of reduction in tumor growth after 20 days of treatment with respect to control mice. (c) Body weight changes. The body weight changes of LLC bearing C57BL mice treated with vehicle or tested compounds. Each drug was administered daily after 9 days from the tumor cell inoculum. Weights were measured at day 1 and daily from day 9. Error bars indicate the standard deviation.
All studies involving animal testing were carried out in accordance with the ethical guidelines for animal research adopted by the University of Padua, acknowledging the Italian regulation (D.L.G.S. 116/92) and European Directive 86/609/EEC as to the animal welfare and protection and the related codes of practice. […]

[2] = MTD studies (highest not toxic dose); format: in vivo; settings: daily ip
[3] = Body weight changes of LLC bearing mice; format: in vivo; settings: mouse, in vivo, ip, 1.5 mg/kg
Source text: as §1, with “Control mice received the vehicle (0.2%v/v EtOH and 99.8%v/v of a saline solution), whereas treated groups received daily doses of 27 (7.5 mg · kg^−1 in the vehicle solution composed of 0.2%v/v EtOH and 99.8%v/v of saline solution) or CDDP (1.5 mg · kg^−1 in saline solution). Tumor growth was estimated at day 20 (Fig. 7a).” left out
Figure 7 In vivo testing of compound 27. […] At day 20, animals were sacrificed (i.e., before tumor can cause the animal discomfort), the legs were amputated at the proximal end of the femur, and the inhibition of tumor growth was determined according to the difference in weight of the tumor-bearing leg and the healthy leg of the animals expressed as % referred to the control animals. […] Both 27 and CDDP were administered at the highest not toxic doses (7.5 and 1.5 mg/kg, respectively), as determined by MTD studies. […] Weights were measured at day 1 and daily from day 9. […]

A549 cells = experiment: MTT cytotoxicity assay, A549 lung cancer cells; format: cell-based, human
Method: (§2) Compounds active against at least one kinase among EGFR and class III RTKs were evaluated for their cytotoxic properties against two different human cancer cell lines, namely non small cells A549 lung cancer cells (sensitive to EGFR inhibitors)[46] and pancreatic BxPC3 adenocarcinoma (sensitive to both PDGFRβ and EGFR inhibitors)[47][48] cells. […] The results, expressed as IC50 values (μM) calculated from the dose-survival curves obtained after 72 h of drug treatment from the MTT test, are reported in Table 1.
(§3) All compounds, except derivative 27, were dissolved in DMSO just before the experiment, and a calculated amount of drug solution was added to the cell growth medium to a final solvent concentration of 0.5%, which had no discernible effect on cell killing. Compound 27 was dissolved in a 0.9% NaCl solution just before the experiment.
(§4) Human lung (A549), breast (MCF-7), pancreas (BxPC3), and colon (LoVo) carcinoma cell lines along with melanoma (A375) were obtained from American Type Culture Collection (ATCC, Rockville, MD). Human non-tumor embryonic kidney HEK293 cells were obtained from European Collection of Cell Cultures (ECACC, Salisbury, UK). Human cervical carcinoma A431cells were kindly provided by Prof. F. Zunino (Division of Experimental Oncology B, Istituto Nazionale dei Tumori, Milan, Italy). Human ovarian cancer 2008 cells were kindly provided by Prof. G. Marverti (Dept. of Biomedical Science of Modena University, Italy). Cell lines were maintained in the logarithmic phase at 37 °C in a 5% carbon dioxide atmosphere using the following culture media containing 10% fetal calf serum (Euroclone, Milan, Italy), antibiotics (50 units ∙ mL^−1 penicillin and 50 μg ∙ mL^−1 streptomycin) and 2 mM l-glutamine: i) RPMI-1640 medium (Euroclone) for MCF-7, A431, BxPC3 and 2008 cells; ii) F-12 HAM’S (Sigma Chemical Co.) for A549 and LoVo cells; iii) D-MEM medium (Euroclone) for HEK293 cells.
(§5) The growth inhibitory effect towards human cell lines was evaluated by means of MTT (tetrazolium salt reduction) assay. Briefly, 3–8 ∙ 10^3 cells/well, dependent upon the growth characteristics of the cell line, were seeded in 96-well microplates in growth medium (100 μL) and then incubated at 37 °C in a 5% carbon dioxide atmosphere. After 24 h, the medium was removed and replaced with a fresh one containing the test compound at the appropriate concentration. Triplicate cultures were established for each treatment. After 72 h, each well was treated with 10 μL of a 5 mg ∙ mL-1 MTT (3-(4,5-dimethylthiazol-2-yl)-2,5-diphenyltetrazolium bromide) saline solution, and after 5 h additional incubation, 100 μL of a sodium dodecylsulfate (SDS) solution in HCl 0.01 M were added. After overnight incubation, the inhibition of cell growth induced by the tested complexes was detected by measuring the absorbance of each well at 570 nm using a Bio-Rad 680 microplate reader (Bio-Rad, Hercules, CA). Mean absorbance for each drug dose was expressed as a percentage of the control untreated well absorbance and plotted vs drug concentration.

EGFR = target: T1, EGFR (Homo sapiens, UniProt P00533); experiment: KinomeScan primary screening (POC) at 10 μM, EGFR; format: binding; settings: POC values
T1 construct: purchased DiscoverX (KinomeScan, ScanEDGE subset)
Method: Synthesized compounds were screened against a panel of 48 kinases selected within the ScanEDGE subset of DiscoverX (http://www.discoverx.com/services/drug-discovery-development-services/kinase-profiling/kinomescan/scanedge). The ScanEDGE includes 97 kinases and is an economical approach to assess compounds selectivity throughout the human kinome. All the wt-TKs along with some relevant mutants of Abl1 (T315I) and of EGFR (L858R and L858R/T790M) were chosen. […]
The compounds were evaluated using the KinomeScan™ platform (http://www.discoverx.com/services/drug-discovery-development-services/kinase-profiling/kinomescan), that measures the ability of the test compound to disrupt the complex between a high affinity ATP-mimic probe immobilized on a solid support and the kinase of interest. […] The POC is calculated as reported in equation (1): […]
(§6) The compounds were tested at high concentration (10 μM), in order to highlight not only the main target but also the off-targets. The results of the preliminary screening are reported as heat map (Fig. 4; see also Table S4 for all the measured values), in which the compounds are grouped on the basis of the 6 or 5 substituent at the pyrimidine ring.

HEK293 cells = experiment: MTT cytotoxicity assay, non-tumor HEK293 cells; format: cell-based, human
Method: F. Zunino (Division of Experimental Oncology B, Istituto Nazionale dei Tumori, Milan, Italy).
The growth inhibitory effect towards human cell lines was evaluated by means of MTT (tetrazolium salt reduction) assay. […] Triplicate cultures were established for each treatment.

BxPC3 cells = experiment: MTT cytotoxicity assay, BxPC3 pancreatic adenocarcinoma cells; format: cell-based, human
Method: as §2, §3, §4, §5

panel of 48 kinases = experiment: KinomeScan primary screening (POC) at 10 μM; format: binding, human; settings: POC values
Source text: Synthesized compounds were screened against a panel of 48 kinases selected within the ScanEDGE subset of DiscoverX (http://www.discoverx.com/services/drug-discovery-development-services/kinase-profiling/kinomescan/scanedge). The ScanEDGE includes 97 kinases and is an economical approach to assess compounds selectivity throughout the human kinome. All the wt-TKs along with some relevant mutants of Abl1 (T315I) and of EGFR (L858R and L858R/T790M) were chosen. The remaining 18 targets (3 Tyrosine Kinases-Like, TKLs; 15 Serine-Threonine Kinases, STKs) were selected among the remaining kinases in the ScanEDGE subset on the basis of their well established role in cancer (see Fig. S2 for a graphical representation of the selected kinases with reference to the kinome tree. Some references highlighting the role of each kinase in cancer are also reported in Table S3).
The compounds were evaluated using the KinomeScan™ platform (http://www.discoverx.com/services/drug-discovery-development-services/kinase-profiling/kinomescan), that measures the ability of the test compound to disrupt the complex between a high affinity ATP-mimic probe immobilized on a solid support and the kinase of interest. The KinomeScan is a very helpful technology for the fast and reliable screening of a number of compounds against a wide and customizable panel of kinases. Besides, it is not based on the use of hazardous radioactive ^32P-ATP and has a very low rate of false positive (<1%)[44]. The screening platform outputs a “Percent of Control” (POC) value, statistically correlated to the dissociation constant (Kd) value (http://www.discoverx.com/tools-resources/leadhunter-study-reports-data-analysis), for each pair of kinase/ligand. The POC is calculated as reported in equation (1):
Where: test compound signal = amount of kinase still binding the probe after treatment with test compound; negative control signal = amount of kinase still binding the probe after treatment with DMSO (100% control); positive control signal = amount of kinase still binding the probe after treatment with control compound (0% control).
as §6

T1 sequence (P00533 25-1210): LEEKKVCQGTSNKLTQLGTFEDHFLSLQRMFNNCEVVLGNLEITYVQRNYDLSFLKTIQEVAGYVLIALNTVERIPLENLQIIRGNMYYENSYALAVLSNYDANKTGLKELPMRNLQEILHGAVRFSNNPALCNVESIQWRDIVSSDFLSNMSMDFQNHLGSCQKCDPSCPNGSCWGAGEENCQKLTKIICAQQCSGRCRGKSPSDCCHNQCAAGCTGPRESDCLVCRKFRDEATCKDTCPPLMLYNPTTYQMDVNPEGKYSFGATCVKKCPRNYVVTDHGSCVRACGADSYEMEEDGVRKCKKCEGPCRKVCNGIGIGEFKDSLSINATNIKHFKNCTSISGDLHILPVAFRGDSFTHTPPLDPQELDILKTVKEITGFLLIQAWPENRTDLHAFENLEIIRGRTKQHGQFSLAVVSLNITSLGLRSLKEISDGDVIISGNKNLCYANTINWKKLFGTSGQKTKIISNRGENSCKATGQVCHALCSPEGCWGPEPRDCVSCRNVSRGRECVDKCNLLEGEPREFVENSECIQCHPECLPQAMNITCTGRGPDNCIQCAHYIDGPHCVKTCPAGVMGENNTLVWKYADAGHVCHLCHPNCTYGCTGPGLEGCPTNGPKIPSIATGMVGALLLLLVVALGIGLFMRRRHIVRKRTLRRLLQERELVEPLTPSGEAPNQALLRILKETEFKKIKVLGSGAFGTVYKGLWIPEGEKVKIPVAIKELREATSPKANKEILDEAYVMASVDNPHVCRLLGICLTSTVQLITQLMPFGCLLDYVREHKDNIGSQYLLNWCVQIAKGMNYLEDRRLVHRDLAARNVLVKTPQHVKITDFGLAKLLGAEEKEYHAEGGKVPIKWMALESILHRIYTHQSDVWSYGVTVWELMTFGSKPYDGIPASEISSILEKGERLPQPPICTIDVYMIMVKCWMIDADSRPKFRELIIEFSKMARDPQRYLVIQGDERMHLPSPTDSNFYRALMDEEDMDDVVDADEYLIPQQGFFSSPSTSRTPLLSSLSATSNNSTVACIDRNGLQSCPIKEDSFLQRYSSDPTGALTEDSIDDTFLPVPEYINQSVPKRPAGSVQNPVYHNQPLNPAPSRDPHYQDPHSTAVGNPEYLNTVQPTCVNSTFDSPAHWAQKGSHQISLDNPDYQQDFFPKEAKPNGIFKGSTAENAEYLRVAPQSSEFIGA

Row | SMILES | Inhibition of tumor growth (%) ([1]; daily ip from day 9, day 20, versus vehicle control) | Average tumor weight (mean±S.D., g) ([1]; daily ip from day 9, day 20) [g] | Highest not toxic dose as determined by MTD studies [2] [mg/kg] | Body weight loss (in words) [3] | IC50 (A549 cells; Homo sapiens, A549, 72 h, MTT test, 72 h of drug treatment, read-out: A549 IC50 (μM) ± SD) [µM] | Potency relative to SU (A549) (A549 cells; ratio between IC50 of sunitinib and IC50 of tested compound, A549) | Activity against EGFR in primary screening (EGFR) | IC50 (HEK293 cells; Homo sapiens, HEK293, MTT test, 72 h, non-tumor cells, read-out: HEK293 IC50 (μM) ± SD) [µM] | Selectivity Index (HEK293 cells; IC50 toward non cancerous HEK293 cells divided by the average IC50 for the malignant cells (A549, BxPC3)) | IC50 (BxPC3 cells; Homo sapiens, BXPC-3, MTT test, 72 h of drug treatment, read-out: BxPC3 IC50 (μM) ± SD) [µM] | Potency relative to SU (BxPC3) (BxPC3 cells; ratio between IC50 of sunitinib and IC50 of tested compound, BxPC3) | Selectivity profile (kinases targeted) in primary screening (panel of 48 kinases)
1 | [NH2][Pt]([NH2])([Cl])[Cl] [CDDP, cisplatin, reference compound] | 71.63% and 71.6% | 0.139 ± 0.09 | 1.5 | elevated body weight loss | – | – | – | – | – | – | – | –
2 | O=C(Nc1ccccc1)Nc1ccc(Nc2cc(Nc3ccccc3)ncn2)cc1 [Compound 7] | – | – | – | – | 5.13 ± 0.94 | 1.21 | very poor activity | 3.14 ± 0.57 | 0.64 | 4.6 ± 0.85 | 1.10 | class III RTK
